Experimental data published in article PMC3938723, “Learning from Host-Defense Peptides: Cationic, Amphipathic Peptoids with Potent Anticancer Activity” (PLoS ONE, 2014).
Non-standard residues stand in square brackets, D forms with d. Residues, ends and D or L forms follow the SMILES beside them. Nspe = C[C@H](NCC(=O)O)c1ccccc1; NhArg = N=C(N)NCCCCNCC(=O)O; Nlys = NCCCCNCC(=O)O

Columns and labels:
[1] = Analytical RP-HPLC elution as relative measure of molecular hydrophobicity; type: physicochemical; conditions: percentage of acetonitrile at elution, analytic RP-HPLC, C18 column, linear water/acetonitrile (0.1% trifluoroacetic acid) gradient 5%-95% acetonitrile over 30 min
From the text: Peptoids were synthesized using an ABI 433A peptide synthesizer (Applied Biosystems, Inc.) on Rink amide MBHA resin (EMD Biosciences, Gibbstown, NJ) using the submonomer protocol, [24]. Briefly, the amine on the nascent chain is bromoacetylated or chloroacetylated followed by SN2 displacement of bromide or chloride by a primary amine to form the side chain. Resin-bound peptoids were then exposed to a mixture of trifluoroacetic acid (TFA): triisopropylsilane: water (95∶2.5∶2.5, volume ratio) for 10 minutes to cleave peptoids from the resin. Crude peptoids were purified by reversed-phase high performance liquid chromatography (RP-HPLC) (Waters Corporation) using a C18 column and a linear acetonitrile/water gradient. A final purity >95% as measured by analytical RP-HPLC (Waters Corporation) was achieved, and the identity of each peptoid was confirmed using electrospray ionization mass spectrometry (ESI/MS). Pexiganan was synthesized by standard Fmoc chemistry on an ABI 433A peptide synthesizer ([…]). Unless indicated otherwise, all reagents were purchased from Sigma Aldrich (St. Louis, MO). Among the submonomers used, Nspe was derived from (S)-N-(1-phenylethyl)amine; Npm from benzylamine ([…]); NHis from histamine (2-[4-imidazolyl]ethylamine); NLeu from isobutylamine; NLys from N-tert-butoxycarbonyl-1,4-butanediamine (CNH Technologies, MA). Guanidinylation of NLys was carried out according to the reported procedure. When NHis was used in the peptoid sequence, chloroacetic acid was used. 5(6)-Carboxyfluorescein was used to label the N-terminus of peptoid 1 [28].
Peptoids were utilized herein as a peptidomimetic scaffold to capture the cationic, amphipathic nature of anticancer peptides, as well as to improve molecular stability and to increase chemical diversity. The design of anticancer peptoids were derived from previous antimicrobial peptoids and were further optimized hererin to improve the activity and selectivity of peptoids against anionic membranes, [24], [25]. […] Several novel variants were designed based on peptoid 1 but with different charges, amphipathicity, length, and helicity to change their activity or selectivity. The sequences of these variants, the solvent composition at RP-HPLC elution as a relative measure of molecular hydrophobicity, molecular net charges and their charge-to-length ratio are summarized in Table 1. […] Pexiganan, a clinically-relevant peptide analog of magainin 2 which was developed for topical treatment for diabetic foot infection, and LL-37, the only known human cathelicidin which is a non-selective antimicrobial peptide, were also tested for comparison.

MCF-7 (breast cancer) = assay: MTS cell viability assay, MCF-7; type: cell-based
Method: (§1) MCF-7, MCF-7/TxT50 and OVCAR-3 (available in ATCC) were kindly provided by Professor Branimir Sikic's lab at Stanford University, and were cultured in McCoy's 5A media (GIBCO) with 10% FBS and antibiotics. Primary dermal fibroblasts were gifts from Lifeline Cell Technology and were cultured <6 passages according to the protocol Lifeline provides. All the cells were cultured in cell incubators (Thermo Scientific) at 37°C with 5% CO2.
(§2) This assay is a colorimetric method for determining the number of viable cells in proliferation. Aliquots of 100 µl media containing 1×10^4 cells were distributed into each well of a 96-well plate (BD Falcon). The following day, when cell density reaches about ∼40% confluency, the cell media were removed and replaced with serial dilutions of peptoid stocks in culturing media. For peptoid dilutions, peptoid stocks were initially diluted in media at 100 µM and then diluted by half in series using a multichannel pipette, and maintained in 100 µl media for each concentration with triple repeats. After peptoid solutions were transferred onto cells in 96-well plates, cells were incubated at 37°C for certain time periods. Then 20 µl of the CellTiter 96 Aqueous Non-Radioactive cell proliferation assay (Promega) reagent which contains a tetrazolium compound, [3-(4,5-dimethylthiazol-2-yl)-5-(3-carboxymethoxyphenyl)-2-(4-sulfophenyl)-2H-tetrazolium, inner salt; MTS(a)], was added to each well and cells were further incubated for 2 h to metabolize. The absorbance of formazan products were measured at 490 nm in a microplate reader (Molecular Devices). Percentage of cell viability = (A -A testblank)/(A control -A blank)×100, where A is the absorbance of the test well and A control the average absorbance of wells with cells not treated with peptoids. A testblank (media, MTS, and diluted peptoids) and A blank (media and MTS) were background absorbances measured in the absence of cells.
(§3) The activity and selectivity of these peptoids against cancer cells were evaluated in vitro. Their cytotoxicity was tested in three cancer cell lines, MCF-7 (human breast cancer), LNCaP (human prostate cancer), and OVCAR-3 (human ovarian cancer). To estimate the selectivity of these peptoids in vitro, hemolytic activities of some peptoids were cited from previously published work (Table 2 **column), and the MRC-5 cell line (human fibroblasts derived from fetal lung tissues) and primary dermal fibroblasts were also tested as normal cell controls. Briefly, cells were treated with peptoids diluted in culturing media for certain time periods, and then cell viability was measured via MTS assays.

LNCaP (prostate cancer) = assay: MTS cell viability assay, LNCaP; type: cell-based
Method: as §2, §3

OVCAR3 (ovarian cancer) = assay: MTS cell viability assay, OVCAR3; type: cell-based
Method: as §1, §2, §3

[2] = test system: MRC-5 (fetal lung fibroblast); assay: MTS cell viability assay, MRC-5; type: cell-based
Method: as §1, §2, §3

[3] = test system: Primary dermal fibroblast; assay: MTS cell viability assay, primary dermal fibroblasts; type: cell-based
Method: as §1, §2, §3

human red blood cells = conditions: cited from earlier work
From the text: Table 2 Peptoid Cytotoxicity in cancer cell lines and control cells. | column: HC10 (µM) ** || The chain length is believed to influence not only the activity but also modes of action of cationic, amphipathic peptides, [34]. […] Thus we limited the chain length of peptoids to 13 residues at most, and studied 1 9mer which has the same charge-to-length ratio (CTLR) as peptoid ...

[4] = MTS assay, 72 h treatment, media with 10% FBS, max 100 µM tested, triple repeats
[5] = normal cell control, MTS assay, 72 h treatment, media with 10% FBS, max 100 µM tested

Compound	HPLC elution [1]	LC50 MCF-7 (breast cancer) (MCF-7 (breast cancer); 72 h)	LC50 LNCaP (prostate cancer) (LNCaP (prostate cancer); 72 h)	LC50 OVCAR3 (ovarian cancer) (OVCAR3 (ovarian cancer); 72 h)	LC50 MRC-5 (fetal lung fibroblast) ([2]; 72 h)	LC50 Primary dermal fibroblast ([3]; 72 h)	HC10 (human red blood cells)	LC50 MCF-7 (breast cancer) (MCF-7 (breast cancer); [4])	LC50 LNCaP (prostate cancer) (LNCaP (prostate cancer); [4])	LC50 OVCAR3 (ovarian cancer) (OVCAR3 (ovarian cancer); [4])	LC50 MRC-5 (fetal lung fibroblast) [2, 5]	LC50 Primary dermal fibroblast [3, 5]	hemolytic activity (human red blood cells)
C[C@@H](c1ccccc1)N(CC(N)=O)C(=O)CN(C(=O)CN(CCCCN)C(=O)CN(C(=O)CN(C(=O)CN(CCCCN)C(=O)CN(C(=O)CN(C(=O)CNCCCCN)[C@@H](C)c1ccccc1)[C@@H](C)c1ccccc1)[C@@H](C)c1ccccc1)[C@@H](C)c1ccccc1)[C@@H](C)c1ccccc1 [1 9mer, H-(NLys-Nspe-Nspe)3-NH2] (H-[Nlys][Nspe][Nspe][Nlys][Nspe][Nspe][Nlys][Nspe][Nspe]-NH2)	60 % ACN	30 µM	27 µM	34 µM	40 µM	32 µM	150 µM	–	–	–	–	–	–
CC(C)CN(CC(N)=O)C(=O)CN(CCCCN)C(=O)CN(CC(C)C)C(=O)CN(CC(C)C)C(=O)CN(CCCCN)C(=O)CN(CC(C)C)C(=O)CN(CC(C)C)C(=O)CN(CCCCN)C(=O)CN(CC(C)C)C(=O)CN(CC(C)C)C(=O)CNCCCCN [1 11mer-NLeu, H-(NLys-NLeu-NLeu)3-NLys-NLeu-NH2]	51 % ACN	>100 µM	>100 µM	>100 µM	>100 µM	>100 µM	–	–	–	–	–	–	–
C[C@@H](c1ccccc1)N(CC(N)=O)C(=O)CN(Cc1ccccc1)C(=O)CN(CCCCN)C(=O)CN(Cc1ccccc1)C(=O)CN(Cc1ccccc1)C(=O)CN(CCCCN)C(=O)CN(Cc1ccccc1)C(=O)CN(Cc1ccccc1)C(=O)CN(CCCCN)C(=O)CN(Cc1ccccc1)C(=O)CN(C(=O)CNCCCCN)[C@@H](C)c1ccccc1 [1 achiral-Nspe2, 12, H-NLys-Nspe-Npm-(NLys-Npm-Npm)2-NLys-Npm-Nspe-NH2]	62 % ACN	12 µM	10 µM	16 µM	21 µM	32 µM	–	–	–	–	–	–	–
CC[C@H](C)[C@H](NC(=O)[C@H](CCCCN)NC(=O)[C@H](CCC(=O)O)NC(=O)[C@H](CCCCN)NC(=O)[C@H](CO)NC(=O)[C@H](CCCCN)NC(=O)[C@H](CCCNC(=N)N)NC(=O)[C@H](Cc1ccccc1)NC(=O)[C@H](Cc1ccccc1)NC(=O)[C@H](CC(=O)O)NC(=O)CNC(=O)[C@H](CC(C)C)NC(=O)[C@@H](N)CC(C)C)C(=O)NCC(=O)N[C@@H](CCCCN)C(=O)N[C@@H](CCC(=O)O)C(=O)N[C@@H](Cc1ccccc1)C(=O)N[C@@H](CCCCN)C(=O)N[C@@H](CCCNC(=N)N)C(=O)N[C@H](C(=O)N[C@H](C(=O)N[C@@H](CCC(N)=O)C(=O)N[C@@H](CCCNC(=N)N)C(=O)N[C@H](C(=O)N[C@@H](CCCCN)C(=O)N[C@@H](CC(=O)O)C(=O)N[C@@H](Cc1ccccc1)C(=O)N[C@@H](CC(C)C)C(=O)N[C@@H](CCCNC(=N)N)C(=O)N[C@@H](CC(N)=O)C(=O)N[C@@H](CC(C)C)C(=O)N[C@H](C(=O)N1CCC[C@H]1C(=O)N[C@@H](CCCNC(=N)N)C(=O)N[C@H](C(=O)N[C@@H](CCC(=O)O)C(=O)N[C@@H](CO)C(=O)O)[C@@H](C)O)C(C)C)[C@@H](C)CC)C(C)C)[C@@H](C)CC [LL 37, LL-37, reference compound]	–	21 µM	27 µM	24 µM	24 µM	26 µM	–	–	–	–	–	–	–
C[C@@H](c1ccccc1)N(CC(N)=O)C(=O)CN(C(=O)CN(CCCCNC(=N)N)C(=O)CN(C(=O)CN(C(=O)CN(CCCCNC(=N)N)C(=O)CN(C(=O)CN(C(=O)CN(CCCCNC(=N)N)C(=O)CN(C(=O)CN(C(=O)CNCCCCNC(=N)N)[C@@H](C)c1ccccc1)[C@@H](C)c1ccccc1)[C@@H](C)c1ccccc1)[C@@H](C)c1ccccc1)[C@@H](C)c1ccccc1)[C@@H](C)c1ccccc1)[C@@H](C)c1ccccc1 [Peptoid 1-Nbtg, H-(Nbtg-Nspe-Nspe)4-NH2] (H-[NhArg][Nspe][Nspe][NhArg][Nspe][Nspe][NhArg][Nspe][Nspe][NhArg][Nspe][Nspe]-NH2)	–	5 µM	8 µM	8 µM	10 µM	8 µM	–	–	–	–	–	–	–
CC[C@H](C)[C@H](NC(=O)CN)C(=O)NCC(=O)N[C@@H](CCCCN)C(=O)N[C@@H](Cc1ccccc1)C(=O)N[C@@H](CC(C)C)C(=O)N[C@@H](CCCCN)C(=O)N[C@@H](CCCCN)C(=O)N[C@@H](C)C(=O)N[C@@H](CCCCN)C(=O)N[C@@H](CCCCN)C(=O)N[C@@H](Cc1ccccc1)C(=O)NCC(=O)N[C@@H](CCCCN)C(=O)N[C@@H](C)C(=O)N[C@@H](Cc1ccccc1)C(=O)N[C@H](C(=O)N[C@@H](CCCCN)C(=O)N[C@H](C(=O)N[C@@H](CC(C)C)C(=O)N[C@@H](CCCCN)C(=O)N[C@@H](CCCCN)C(N)=O)[C@@H](C)CC)C(C)C [Pexiganan, reference compound] (H-GIGKFLKKAKKFGKAFVKILKK-NH2)	–	–	–	–	–	–	70 µM	8 µM	6 µM	13 µM	21 µM	19 µM	–
H-(NLys-Nspe-Nspe)5-NH2 [peptoid 1 15mer, reference compound]	–	–	–	–	–	–	–	–	–	–	–	–	substantially higher hemolytic activity
